Where two headings read alike, the source gives them in different places. Some results are limits rather than exact numbers.

One data set relates to LN229 MGMT+/MMR+ cells. Description: Short-term cell viability assay, LN229 MGMT+/MMR+. The note with it: Homo sapiens, read-out: IC50 against LN229 cell lines, MGMT+ MMR+. The class given is cell-based. How it is done: LN229 MGMT- and MGMT+ cell lines were a gift from B. Kaina (Johannes Gutenberg University Mainz, Mainz, Germany) and grown in Gibco® Duilbecco's Modified Eagle Medium with 10% fetal bovine serum (DMEM). For each compound tested, the relationship between MGMT status and MMR status and compound activity, in terms of IC50 values ([…]), was determined by the following method. On day 1, LN229 isogenic cells of varying MGMT and MMR status were seeded in 96 well format at a density of 2000 cells/well in 100 μL of DMEM media and allowed to adhere overnight. On day 2, a drug master plate was made with 100×the desired maximal concentration of test compound and serially diluted by 2 until 100×the minimal desired concentration, with one DMSO control. Then daughter plates were created with varied concentrations from 3-times the minimal concentration to 3-times the maximal desired concentration. Afterwards, 50 μL of daughter drug plate was added to 100 μL of the seeded cells for a final concentration of 1×in triplicate. Cells were allowed to grow for 6 days. On day 7, the cells were fixed, and stained with Hoechst nuclear dye and imaged to determine growth inhibition.
For each compound tested, the relationship between MGMT status and MMR status and compound activity, in terms of IC50 values (in μM), was determined. In addition, for each compound, the therapeutic index (TI) was calculated, according to the equation MGMT TI=IC50 (MGMT+/MMR+) divided by IC50 (MGMT−/MMR+). The T1 indicates the efficacy of a compound in treating the targeted MGMT-cancer cells as compared to potential for the same compound to damage, or have adverse effects against, normal cells which are MGMT+cells, The higher the value of the TI, the safer the compound is. […] MMR RI (resistance index)=IC50 (MGMT−/MMR−) divided by IC50 (MGMT−/MMR+). The higher the value of the RI, the less likely that resistance to the compound will develop.
(§1) Short-term Cell Viability Assay. Cells were seeded in 96-well plates at 1000 or 2000 cells/well and allowed to adhere at 23° C. for 60 min and then incubated overnight at 37° C. Cells were treated with indicated concentrations of compounds in triplicate for 4-6 days prior to fixation with 3.7% paraformaldehyde and nuclear staining with 1 μg/mL Hoechst 33342 dye. Cells were imaged on a Cytation 3 imaging reader (BioTek) and quantified using CellProfiler software. For in vitro short-term growth delay experiments, IC50 values were determined from the nonlinear regression equation, [inhibitor] vs normalized response with variable slope.

Data set [1] concerns HCT116 cells complemented with chromosome 3 carrying wildtype MLH1 (+Chr3). Description: Short-term viability assay, HCT116 +Chr3 cells +/- O6BG. The class given is cell-based, human. Conditions: with or without 10 μM O6BG pre-treatment. The protocol: FIG. 1B: Short-term viability assay curves for KL-50 in DLD1 MSH6-deficient cells pre-treated with 0.01% DMSO control (CTR) or 10 μM O^6BG (+O^6BG) for 1 h prior to KL-50 addition. […] Short-term viability assay curves for (FIG. 1E) KL-50 in HCT116 MLH1−/−cells or (FIG. 1F) HCT116 cells complemented with chromosome 3 carrying wildtype MLH1 (+Chr3) pre-treated with 0.01% DMSO control or 10 μM O^6BG (+O^6BG) for 1 h prior to KL-50 addition. […] For these figures, points, mean; error bars, SD; n>3 technical replicates.
as §1

What is called IC50 is the point on the concentration scale where inhibition reaches its midpoint. For `NC(=O)c1ncn2c(=O)n(CCF)nnc12` [KL-50], the 50% inhibitory concentration (IC50) with LN229 MGMT+/MMR+ cells (LN-229, Table III, shRNA None) amounted to 285 ± 46 µM; with LN229 MGMT+/MMR+ cells (LN-229, Table II), 587 ± 166 µM. In addition, in data set [1], the “cytotoxicity in HCT116 MLH1-complemented cells” value is recorded as “induced selective tumor cell killing specifically in the setting of O^6BG-induced MGMT suppression”.
With `Cn1nnc2c(C(N)=O)ncn2c1=O` [TMZ, 4-methyl-5-oxo-2,3,4,6,8-pentazabicyclo[4.3.0]nona-2,7,9-triene-9-carboxamide, reference compound], the IC50 with LN229 MGMT+/MMR+ cells (LN-229, 144 h, Table 1, 6 days growth, Hoechst nuclear count) was more than 100 µM; in the data set on LN229 MGMT+/MMR+ cells (LN-229, Table III, shRNA None) it was 697 ± 60 µM; in the data set with LN229 MGMT+/MMR+ cells (LN-229, Table II), 742 ± 468 µM. In data set [1], the “cytotoxicity in HCT116 MLH1-complemented cells” value was “enhanced sensitivity to TMZ, which was further potentiated by MGMT depletion”.

For the origin of these results see US20240294478A1, “ANTI-CANCER COMPOUNDS AND METHODS OF USE” (YALE UNIVERSITY, priority 2021, published 2024).
